Converted amounts (≈) assume the structure as drawn.
Legend:
Staphylococcus aureus [1] = experiment: Antibacterial activity against Staphylococcus aureus ATCC 29213 measured after 16 to 18 hrs by CLSI method; assay type: functional; conditions: time 16-18 hrs
Staphylococcus aureus [2] = experiment: Antibacterial activity against methicillin-resistant Staphylococcus aureus clinical isolate MRSA-11 measured after 16 to 18 hrs by CLSI method; assay type: functional; conditions: time 16-18 hrs
Staphylococcus aureus [3] = experiment: Antibacterial activity against methicillin-resistant Staphylococcus aureus clinical isolate MRSA-13 measured after 16 to 18 hrs by CLSI method; assay type: functional; conditions: time 16-18 hrs
Staphylococcus aureus [4] = experiment: Antibacterial activity against methicillin-resistant Staphylococcus aureus clinical isolate MRSA-14 measured after 16 to 18 hrs by CLSI method; assay type: functional; conditions: time 16-18 hrs
Staphylococcus aureus [5] = experiment: Antibacterial activity against methicillin-resistant Staphylococcus aureus clinical isolate MRSA-16 measured after 16 to 18 hrs by CLSI method; assay type: functional; conditions: time 16-18 hrs
Staphylococcus aureus [6] = experiment: Antibacterial activity against methicillin-resistant Staphylococcus aureus clinical isolate MRSA-17 measured after 16 to 18 hrs by CLSI method; assay type: functional; conditions: time 16-18 hrs
Staphylococcus aureus [7] = experiment: Antibacterial activity against methicillin-resistant Staphylococcus aureus clinical isolate MRSA-18 measured after 16 to 18 hrs by CLSI method; assay type: functional; conditions: time 16-18 hrs
Staphylococcus aureus [8] = experiment: Antibacterial activity against methicillin-resistant Staphylococcus aureus clinical isolate MRSA-20 measured after 16 to 18 hrs by CLSI method; assay type: functional; conditions: time 16-18 hrs
Staphylococcus aureus [9] = experiment: Antibacterial activity against methicillin-resistant Staphylococcus aureus clinical isolate MRSA-21 measured after 16 to 18 hrs by CLSI method; assay type: functional; conditions: time 16-18 hrs
Staphylococcus aureus [10] = experiment: Antibacterial activity against methicillin-resistant Staphylococcus aureus clinical isolate MRSA-22 measured after 16 to 18 hrs by CLSI method; assay type: functional; conditions: time 16-18 hrs
Staphylococcus aureus [11] = experiment: Antibacterial activity against methicillin-resistant Staphylococcus aureus clinical isolate MRSA-23 measured after 16 to 18 hrs by CLSI method; assay type: functional; conditions: time 16-18 hrs
Escherichia coli = experiment: Antibacterial activity against Escherichia coli ATCC25922 measured after 16 to 18 hrs by CLSI method; assay type: functional; conditions: time 16-18 hrs
[12] = Hemolytic activity in sheep erythrocytes incubated for 1 hr by absorbance based analysis; assay type: toxicity, cell-based, Ovis aries, Erythrocyte
[13] = Selectivity index, ratio of HC50 for hemolytic activity in sheep erythrocytes to MIC for antibacterial activity against Staphylococcus aureus ATCC 29213; assay type: toxicity, cell-based; conditions: read-out: Selectivity Index

Row | Structure (SMILES) | MIC (Staphylococcus aureus [1]) | MIC (Staphylococcus aureus [2]) | MIC (Staphylococcus aureus [3]) | MIC (Staphylococcus aureus [4]) | MIC (Staphylococcus aureus [5]) | MIC (Staphylococcus aureus [6]) | MIC (Staphylococcus aureus [7]) | MIC (Staphylococcus aureus [8]) | MIC (Staphylococcus aureus [9]) | MIC (Staphylococcus aureus [10]) | MIC (Staphylococcus aureus [11]) | MIC (Escherichia coli) | HC50 at 1 h [12] | selectivity ratio [13]
1 | COc1cc(OCCCCCN2CCCCC2C)c(CC=C(C)C)c2c1C(=O)CC(c1ccc(OCCCCCN3CCCCC3C)cc1)O2 (configuration not stated) | 32 µg/mL (≈ 46.4 µM) | 16 µg/mL (≈ 23.2 µM) | 16 µg/mL (≈ 23.2 µM) | 16 µg/mL (≈ 23.2 µM) | 8 µg/mL (≈ 11.6 µM) | 8 µg/mL (≈ 11.6 µM) | 16 µg/mL (≈ 23.2 µM) | 16 µg/mL (≈ 23.2 µM) | 8 µg/mL (≈ 11.6 µM) | 16 µg/mL (≈ 23.2 µM) | 16 µg/mL (≈ 23.2 µM) | > 128 µg/mL | 292 µg/mL | 9.1
2 | CCCN(CCC)CCCCOc1ccc(C2CC(=O)c3c(OC)cc(OCCCCN(CCC)CCC)c(CC=C(C)C)c3O2)cc1 (configuration not stated) | 16 µg/mL (≈ 24.1 µM) | 16 µg/mL (≈ 24.1 µM) | 16 µg/mL (≈ 24.1 µM) | 16 µg/mL (≈ 24.1 µM) | 16 µg/mL (≈ 24.1 µM) | 16 µg/mL (≈ 24.1 µM) | 32 µg/mL (≈ 48.1 µM) | 16 µg/mL (≈ 24.1 µM) | 16 µg/mL (≈ 24.1 µM) | 16 µg/mL (≈ 24.1 µM) | 16 µg/mL (≈ 24.1 µM) | > 128 µg/mL | > 1280 µg/mL | > 80
3 | COc1cc(OCCCCN2CCC(C)CC2)c(CC=C(C)C)c2c1C(=O)CC(c1ccc(OCCCCN3CCC(C)CC3)cc1)O2 (configuration not stated) | 16 µg/mL (≈ 24.2 µM) | 16 µg/mL (≈ 24.2 µM) | 8 µg/mL (≈ 12.1 µM) | 16 µg/mL (≈ 24.2 µM) | 8 µg/mL (≈ 12.1 µM) | 8 µg/mL (≈ 12.1 µM) | 16 µg/mL (≈ 24.2 µM) | 16 µg/mL (≈ 24.2 µM) | 8 µg/mL (≈ 12.1 µM) | 8 µg/mL (≈ 12.1 µM) | 16 µg/mL (≈ 24.2 µM) | > 128 µg/mL | > 640 µg/mL | > 40
4 | COc1cc(O)c(CC=C(C)C)c2c1C(=O)CC(c1ccc(O)cc1)O2 (configuration not stated) [ISOXANTHOHUMOL] | > 64 µg/mL | 64 µg/mL (≈ 181 µM) | > 64 µg/mL | > 64 µg/mL | 64 µg/mL (≈ 181 µM) | > 64 µg/mL | > 64 µg/mL | 64 µg/mL (≈ 181 µM) | 64 µg/mL (≈ 181 µM) | 64 µg/mL (≈ 181 µM) | 64 µg/mL (≈ 181 µM) | > 64 µg/mL | > 320 µg/mL | –
5 | COc1cc(OCCCCN2CCSCC2)c(CC=C(C)C)c2c1C(=O)CC(c1ccc(OCCCCN3CCSCC3)cc1)O2 (configuration not stated) | 64 µg/mL (≈ 95.7 µM) | > 128 µg/mL | > 128 µg/mL | > 128 µg/mL | > 128 µg/mL | > 128 µg/mL | > 128 µg/mL | > 128 µg/mL | > 128 µg/mL | > 128 µg/mL | > 128 µg/mL | > 128 µg/mL | > 640 µg/mL | > 10
6 | COc1cc(OCCCCN2CCCCC2)c(CC=C(C)C)c2c1C(=O)CC(c1ccc(OCCCCN3CCCCC3)cc1)O2 (configuration not stated) | 32 µg/mL (≈ 50.6 µM) | 16 µg/mL (≈ 25.3 µM) | 16 µg/mL (≈ 25.3 µM) | 32 µg/mL (≈ 50.6 µM) | 16 µg/mL (≈ 25.3 µM) | 16 µg/mL (≈ 25.3 µM) | 32 µg/mL (≈ 50.6 µM) | 16 µg/mL (≈ 25.3 µM) | 32 µg/mL (≈ 50.6 µM) | 16 µg/mL (≈ 25.3 µM) | 16 µg/mL (≈ 25.3 µM) | > 128 µg/mL | 199 µg/mL | > 6.2
7 | COc1cc(OCCCCCN(CC(C)C)CC(C)C)c(CC=C(C)C)c2c1C(=O)CC(c1ccc(OCCCCCN(CC(C)C)CC(C)C)cc1)O2 (configuration not stated) | > 128 µg/mL | > 128 µg/mL | > 128 µg/mL | > 128 µg/mL | > 128 µg/mL | > 128 µg/mL | > 128 µg/mL | > 128 µg/mL | > 128 µg/mL | > 128 µg/mL | > 128 µg/mL | > 128 µg/mL | > 1280 µg/mL | –
8 | CCCCN(CCCC)CCCCCOc1ccc(C2CC(=O)c3c(OC)cc(OCCCCCN(CCCC)CCCC)c(CC=C(C)C)c3O2)cc1 (configuration not stated) | 4 µg/mL (≈ 5.34 µM) | 8 µg/mL (≈ 10.7 µM) | 4 µg/mL (≈ 5.34 µM) | 4 µg/mL (≈ 5.34 µM) | 4 µg/mL (≈ 5.34 µM) | 4 µg/mL (≈ 5.34 µM) | 8 µg/mL (≈ 10.7 µM) | 4 µg/mL (≈ 5.34 µM) | 8 µg/mL (≈ 10.7 µM) | 8 µg/mL (≈ 10.7 µM) | 8 µg/mL (≈ 10.7 µM) | > 128 µg/mL | 980 µg/mL | 245
9 | COc1cc(OCCCN2CCOCC2)c(CC=C(C)C)c2c1C(=O)CC(c1ccc(OCCCN3CCOCC3)cc1)O2 (configuration not stated) | > 128 µg/mL | > 128 µg/mL | > 128 µg/mL | > 128 µg/mL | > 128 µg/mL | > 128 µg/mL | > 128 µg/mL | > 128 µg/mL | > 128 µg/mL | > 128 µg/mL | > 128 µg/mL | > 128 µg/mL | > 1280 µg/mL | –
10 | C[C@@H](O)[C@H]1C(=O)N2C(C(=O)O)=C(S[C@@H]3CN[C@H](C(=O)N(C)C)C3)[C@H](C)[C@H]12 [MEROPENEM] | – | – | – | – | – | – | – | – | – | – | – | 0.062 µg/mL (≈ 0.162 µM) | – | –
11 | COc1cc(OCCCCN(CC(C)C)CC(C)C)c(CC=C(C)C)c2c1C(=O)CC(c1ccc(OCCCCN(CC(C)C)CC(C)C)cc1)O2 (configuration not stated) | > 128 µg/mL | > 128 µg/mL | > 128 µg/mL | > 128 µg/mL | > 128 µg/mL | > 128 µg/mL | > 128 µg/mL | > 128 µg/mL | > 128 µg/mL | > 128 µg/mL | > 128 µg/mL | > 128 µg/mL | > 1280 µg/mL | –

— ChEMBL document CHEMBL5505992, “Novel membrane-targeting isoxanthohumol-amine conjugates for combating methicillin-resistant Staphylococcus aureus (MRSA) infections” (Eur J Med Chem, 2024)
